Results published in article PMC8151276, “An Integrated Approach toward NanoBRET Tracers for Analysis of GPCR Ligand Engagement” (Molecules, 2021).

Legend:
Type in all cases: binding
P2RY6 = molecular target: T1, P2RY6 (Homo sapiens, UniProt Q15077); test: NanoBRET screen HiBiT-P2RY6 in HEK293
T1 construct: purchased Promega (in-house HiBiT-GPCR construct library, NanoBRET)
Description: (§1) Each tracer candidate was screened across the entire library of HiBiT-GPCR constructs using NanoBRET as the detection modality. As depicted in Figure 4A, the specificity of interactions was evaluated through decrease in BRET due to competitive displacement of a bound tracer by excess parental compound. Each tracer was analyzed for binding to each HiBiT-GPCR fusion in the absence and in the presence of competing parental compound. Briefly, HEK293 cells were transfected with HiBiT-GPCR constructs diluted into promoterless DNA to reduce expression and maximize translocation to the cell surface. Each tracer candidate was then screened at concentrations of 1 μM and 0.1 μM across cells expressing these fusions. Cells were treated for 1.5 h with tracer either alone or in the presence of 20 μM competing parental compound (i.e., control). BRET was measured upon addition of purified LgBiT and subsequent complementation with HiBiT genetically fused to a GPCR. The specificity of interactions was assessed through a decrease in BRET signal due to competitive displacement of the bound tracer. To further gauge the robustness of these interactions, the fold response over the control (i.e., BRETtracer/BRETcontrol) was calculated. We chose a 1.5-fold response, which translates to ≥7-fold signal over noise as the minimal threshold required to score an interaction as positive. […]. Below we highlight the screening results obtained for our exemplary fluorescent tracers based on Clozapine, Amitriptyline and AZD1283.
(§2) HiBiT-GPCR DNA constructs were diluted in 10 mM Tris pH 8 to a final concentration of 0.01 μg/μL, arrayed in 96-well plates and stored at −20 °C. For transfection, HEK293 cells were suspended in Opti-MEM (without phenol red) supplemented with 2% fetal bovine serum (Seradigm) and 100 units/mL penicillin–streptomycin (Gibco) at a final concentration of 220,000 cells/mL and dispensed into white 96-well plates at 90 μL/well. Subsequent transfections and screens were carried using an Agilent Bravo Automated Liquid Handling Platform. First, the 96-well HiBiT DNA arrays were diluted 25-fold in Opti-MEM (without serum or phenol red) to a final concentration of 0.0004 μg/μL and 20 μL of the diluted DNAs were transferred into new 96-well plates. Next, promoterless carrier DNA (1 μg/μL) was diluted 25-fold (0.04 μg/μL) and then dispensed into the diluted arrays at 20 μL/well. Following brief mixing, Viafect transfection reagent (Promega) diluted 16-fold into Opti-MEM was dispensed into the plates at 40 μL/well. After mixing by pipetting, plates were incubated for 10 min on the pipetting station deck. The DNA-transfection reagent complexes were then added to plates containing cells. To facilitate the screen, 10 μL of DNA-transfection reagent complexes were added in duplicates to the top 4 and bottom 4 rows, resulting in two identical 48-well arrays per plate. Plates with transfected cells were incubated for 18–20 h at 37 °C/5% CO2. A screen of each tracer across the entire library using two different concentrations requires duplicate plates of transfected cells. Depending on the number of tracers being screened, transfections can be scaled up using the same ratios. The next day, for each tracer, four 20× screening solutions in tracer dilution buffer (Promega) were prepared: two duplicates at final concentration of 20 μM and two duplicates at a final concentration of 2 μM. A competing unmodified compound was added to one of each duplicate at a final concentration of 400 μM. The four resulting solutions were diluted 4-fold in Opti-MEM without serum or phenol red to generate 5× solutions (5 µM and 0.5 µM tracer +/− 100 μM competing compound). To screen the library, a BioTek MultiFlo FX liquid dispenser was used to dispense 22.5 µL of tracer solution to the top 4 rows and 22.5 µL tracer + competing compound solution to the 4 bottom rows. Plates were briefly mixed on an orbital shaker and incubated for 1.5 h at room temperature. […]

FPR3 = molecular target: T2, FPR3 (Homo sapiens, UniProt P25089); test: NanoBRET screen HiBiT-FPR3 in HEK293
T2 construct: purchased Promega (in-house HiBiT-GPCR construct library, NanoBRET)
T2 sequence (P25089 1-353): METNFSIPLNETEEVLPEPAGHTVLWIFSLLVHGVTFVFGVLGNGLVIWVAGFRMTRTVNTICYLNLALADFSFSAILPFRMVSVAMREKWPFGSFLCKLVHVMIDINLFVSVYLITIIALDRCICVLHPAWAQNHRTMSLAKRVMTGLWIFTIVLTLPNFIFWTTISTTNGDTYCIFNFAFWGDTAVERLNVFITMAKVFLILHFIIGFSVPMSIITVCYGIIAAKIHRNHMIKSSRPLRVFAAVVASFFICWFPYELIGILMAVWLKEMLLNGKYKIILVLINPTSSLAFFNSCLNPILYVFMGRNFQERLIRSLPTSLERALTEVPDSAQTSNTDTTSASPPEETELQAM
Description: as §1, §2

AGTR1 = molecular target: T3, AGTR1 (Homo sapiens, UniProt P30556); test: NanoBRET screen HiBiT-AGTR1 in HEK293
T3 construct: purchased Promega (in-house HiBiT-GPCR construct library, NanoBRET)
T3 sequence (P30556 1-359): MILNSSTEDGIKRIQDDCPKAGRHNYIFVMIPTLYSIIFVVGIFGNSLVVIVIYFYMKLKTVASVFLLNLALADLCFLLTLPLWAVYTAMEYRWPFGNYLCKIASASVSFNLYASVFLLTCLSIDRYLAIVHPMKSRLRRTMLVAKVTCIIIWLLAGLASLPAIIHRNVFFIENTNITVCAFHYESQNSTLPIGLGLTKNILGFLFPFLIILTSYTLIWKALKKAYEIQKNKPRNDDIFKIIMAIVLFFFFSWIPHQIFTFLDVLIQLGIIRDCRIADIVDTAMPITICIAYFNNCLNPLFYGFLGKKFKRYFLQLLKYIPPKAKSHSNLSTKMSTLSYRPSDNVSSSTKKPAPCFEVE
Description: as §1, §2

NPY2R = molecular target: T4, NPY2R (Homo sapiens, UniProt P49146); test: NanoBRET screen HiBiT-NPY2R in HEK293
T4 construct: purchased Promega (in-house HiBiT-GPCR construct library, NanoBRET)
T4 sequence (P49146 1-381): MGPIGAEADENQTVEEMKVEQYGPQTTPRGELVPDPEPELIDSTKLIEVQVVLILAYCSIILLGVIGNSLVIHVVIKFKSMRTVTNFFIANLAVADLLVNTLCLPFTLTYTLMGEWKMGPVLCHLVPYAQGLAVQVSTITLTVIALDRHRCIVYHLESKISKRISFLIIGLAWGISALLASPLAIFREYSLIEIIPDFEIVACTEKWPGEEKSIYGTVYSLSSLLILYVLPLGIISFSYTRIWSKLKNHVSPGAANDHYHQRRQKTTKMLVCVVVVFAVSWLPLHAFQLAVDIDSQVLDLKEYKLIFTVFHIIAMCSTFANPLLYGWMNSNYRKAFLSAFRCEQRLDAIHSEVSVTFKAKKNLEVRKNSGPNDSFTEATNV
Description: as §1, §2

OXER1 = molecular target: T5, OXER1 (Homo sapiens, UniProt Q8TDS5); test: NanoBRET screen HiBiT-OXER1 in HEK293
T5 construct: purchased Promega (in-house HiBiT-GPCR construct library, NanoBRET)
T5 sequence (Q8TDS5 whole entry): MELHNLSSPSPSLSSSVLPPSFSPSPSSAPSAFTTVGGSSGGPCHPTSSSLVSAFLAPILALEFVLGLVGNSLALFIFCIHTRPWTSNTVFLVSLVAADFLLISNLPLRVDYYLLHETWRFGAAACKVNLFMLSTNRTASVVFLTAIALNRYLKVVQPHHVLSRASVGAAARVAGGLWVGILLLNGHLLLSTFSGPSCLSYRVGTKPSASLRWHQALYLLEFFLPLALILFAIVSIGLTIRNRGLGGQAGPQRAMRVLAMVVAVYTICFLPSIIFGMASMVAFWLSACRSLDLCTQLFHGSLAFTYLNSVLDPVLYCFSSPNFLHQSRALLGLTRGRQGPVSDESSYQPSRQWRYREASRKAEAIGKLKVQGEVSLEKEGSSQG
Description: as §1, §2

MC3R = molecular target: T6, MC3R (Homo sapiens, UniProt P41968); test: NanoBRET screen HiBiT-MC3R in HEK293
T6 construct: purchased Promega (in-house HiBiT-GPCR construct library, NanoBRET)
T6 sequence (P41968 whole entry): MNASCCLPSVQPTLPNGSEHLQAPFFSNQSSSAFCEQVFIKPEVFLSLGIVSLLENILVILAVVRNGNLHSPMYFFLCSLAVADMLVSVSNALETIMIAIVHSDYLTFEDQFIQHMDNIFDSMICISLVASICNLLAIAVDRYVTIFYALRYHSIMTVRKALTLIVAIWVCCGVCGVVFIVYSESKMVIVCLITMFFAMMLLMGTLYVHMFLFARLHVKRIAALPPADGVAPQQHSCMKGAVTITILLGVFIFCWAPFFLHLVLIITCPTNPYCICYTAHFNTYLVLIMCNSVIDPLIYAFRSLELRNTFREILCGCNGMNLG
Description: as §1, §2

[1] = tracer at 0.1μM, listed as amitriptyline-b-2-NB590
[2] = tracer at 1μM, listed as amitriptyline-b-2-NB590

T1 sequence (Q15077 whole entry): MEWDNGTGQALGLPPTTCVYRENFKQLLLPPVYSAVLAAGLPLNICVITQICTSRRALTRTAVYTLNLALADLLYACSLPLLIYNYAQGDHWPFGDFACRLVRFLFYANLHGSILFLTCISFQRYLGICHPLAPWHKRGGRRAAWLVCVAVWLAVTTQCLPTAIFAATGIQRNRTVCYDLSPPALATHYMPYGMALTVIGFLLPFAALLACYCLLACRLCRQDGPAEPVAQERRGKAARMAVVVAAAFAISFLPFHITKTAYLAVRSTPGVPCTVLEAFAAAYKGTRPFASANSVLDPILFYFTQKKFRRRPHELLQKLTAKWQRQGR

| Structure (SMILES) | NanoBRET Fold Response (P2RY6; P2RY6, tracer 0.1μM) | NanoBRET Fold Response (P2RY6; P2RY6, tracer 1μM) | NanoBRET Fold Response (FPR3; FPR3, tracer 0.1μM) | NanoBRET Fold Response (FPR3; FPR3, tracer 1μM) | NanoBRET Fold Response (AGTR1; AGTR1, tracer 0.1μM) | NanoBRET Fold Response (AGTR1; AGTR1, tracer 1μM) | NanoBRET Fold Response (NPY2R; NPY2R, tracer 0.1μM) | NanoBRET Fold Response (NPY2R; NPY2R, tracer 1μM) | NanoBRET Fold Response (OXER1; OXER1, tracer 0.1μM) | NanoBRET Fold Response (OXER1; OXER1, tracer 1μM) | NanoBRET Fold Response (MC3R; MC3R, tracer 0.1μM) | NanoBRET Fold Response (MC3R; MC3R, tracer 1μM) | further results |
| --- | --- | --- | --- | --- | --- | --- | --- | --- | --- | --- | --- | --- | --- |
| COc1ccc2c(n1)c(CCNC(C)=O)cn2CCNC(=O)CCc1ccc2n1[B-](F)(F)[N+]1=C(c3ccc[nH]3)C=CC1=C2 [Azamelatonin-1-NB590] |  |  |  |  |  |  |  |  |  |  |  |  | NanoBRET Fold Response (P2RY6; 0.1μM tracer): 1.01; NanoBRET Fold Response (P2RY6; 1μM tracer): 1.01; NanoBRET Fold Response (FPR3; 0.1μM tracer): 0.85; NanoBRET Fold Response (FPR3; 1μM tracer): 1.06; NanoBRET Fold Response (AGTR1; 0.1μM tracer): 0.78; NanoBRET Fold Response (AGTR1; 1μM tracer): 1.07; NanoBRET Fold Response (NPY2R; 0.1μM tracer): 1.19; NanoBRET Fold Response (NPY2R; 1μM tracer): 0.85; NanoBRET Fold Response (OXER1; 0.1μM tracer): 1.39; NanoBRET Fold Response (OXER1; 1μM tracer): 1.06; NanoBRET Fold Response (MC3R; 0.1μM tracer): 0.93; NanoBRET Fold Response (MC3R; 1μM tracer): 1.22 |
| CC(C)N(CC[C@H](c1ccccc1)c1cc(CCNC(=O)c2ccc(CNC(=O)CCc3ccc4n3[B-](F)(F)[N+]3=C(c5ccc[nH]5)C=CC3=C4)cc2)ccc1O)C(C)C [Tolterodine-BZ-NB590] | 1.03 | 1.08 | 0.71 | 0.93 | 1.06 | 1.00 | 0.90 | 1.04 | 1.00 | 1.06 | 1.03 | 1.01 |  |
| O=C(CCc1ccc2n1[B-](F)(F)[N+]1=C(c3ccc[nH]3)C=CC1=C2)NCCOCCOCCNC(=O)OCCOCCN1CCN(C2=Nc3ccccc3Sc3ccccc32)CC1 [Quetiapine-a-2-NB590] | 1.30 | 0.96 | 1.28 | 0.66 | 1.00 | 0.92 | 0.99 | 0.85 | 0.99 | 0.98 | 0.98 | 1.08 |  |
| Cc1cc2c(s1)Nc1ccccc1N=C2N1CCN(CCCNC(=O)CCOCCOCCOCCOCCNC(=O)CCc2ccc3n2[B-](F)(F)[N+]2=C(c4ccc[nH]4)C=CC2=C3)CC1 [Olanzapine-a-2-NB590] | 1.31 | 0.95 | 0.92 | 0.96 | 0.94 | 0.95 | 1.00 | 0.99 | 0.96 | 1.04 | 1.00 | 1.12 |  |
| CN(C)CCC=C1c2ccccc2CCc2ccc(C(=O)NCCNC(=O)CCOCCOCCOCCOCCNC(=O)CCc3ccc4n3[B-](F)(F)[N+]3=C(c5ccc[nH]5)C=CC3=C4)cc21 [Amitriptyline-b-2-NB590] |  |  |  |  |  |  |  |  |  |  |  |  | NanoBRET Fold Response (P2RY6; [1]): 1.04; NanoBRET Fold Response (P2RY6; [2]): 0.95; NanoBRET Fold Response (FPR3; [1]): 1.27; NanoBRET Fold Response (FPR3; [2]): 1.02; NanoBRET Fold Response (AGTR1; [1]): 1.12; NanoBRET Fold Response (AGTR1; [2]): 0.81; NanoBRET Fold Response (NPY2R; [1]): 1.09; NanoBRET Fold Response (NPY2R; [2]): 0.88; NanoBRET Fold Response (OXER1; tracer at 0.1μM): 1.08; NanoBRET Fold Response (OXER1; tracer at 1μM): 0.97; NanoBRET Fold Response (MC3R; tracer at 0.1μM): 0.98; NanoBRET Fold Response (MC3R; tracer at 1μM): 0.98 |
| O=C(CCOCCOCCOCCOCCNC(=O)CCc1ccc2n1[B-](F)(F)[N+]1=C(c3ccc[nH]3)C=CC1=C2)NCCCN1CCN(C2=Nc3cc(Cl)ccc3Nc3ccccc32)CC1 [Clozapine-a-2-NB590] |  |  |  |  |  |  |  |  |  |  |  |  | NanoBRET Fold Response (P2RY6; P2RY6, 0.1μM tracer): 1.02; NanoBRET Fold Response (P2RY6; P2RY6, 1μM tracer): 0.92; NanoBRET Fold Response (FPR3; FPR3, 0.1μM tracer): 0.92; NanoBRET Fold Response (FPR3; FPR3, 1μM tracer): 1.30; NanoBRET Fold Response (AGTR1; AGTR1, 0.1μM tracer): 0.96; NanoBRET Fold Response (AGTR1; AGTR1, 1μM tracer): 1.05; NanoBRET Fold Response (NPY2R; NPY2R, 0.1μM tracer): 0.94; NanoBRET Fold Response (NPY2R; NPY2R, 1μM tracer): 1.11; NanoBRET Fold Response (OXER1; OXER1, 0.1μM tracer): 0.95; NanoBRET Fold Response (OXER1; OXER1, 1μM tracer): 1.00; NanoBRET Fold Response (MC3R; MC3R, 0.1μM tracer): 1.02; NanoBRET Fold Response (MC3R; MC3R, 1μM tracer): 0.95 |
